Consider 5 molecules from ChEMBL document CHEMBL5625206, “Design, synthesis, and evaluation of novel pleuromutilin aryl acrylate derivatives as promising broad-spectrum antibiotics especially for combatting multi-drug resistant gram-negative bacteria” (Eur J Med Chem, 2023).

Series [1] concerns Staphylococcus epidermidis. Kind of series: Antibacterial activity against Staphylococcus epidermidis ATCC 12228 assessed as bacterial growth inhibition incubated for 24 hrs by CLSI based broth microdilution method. The series is classed as functional. For orientation: In broth dilution the organism is exposed to a series of concentrations in liquid medium.
In series [2] the test system is Staphylococcus aureus. Kind of series: Antibacterial activity against Staphylococcus aureus ATCC 25923 assessed as bacterial growth inhibition incubated for 24 hrs by CLSI based broth microdilution method. The series is classed as functional.
The test system of series [3] is Staphylococcus aureus. Kind of series: Antibacterial activity against Staphylococcus aureus ATCC 29213 assessed as bacterial growth inhibition incubated for 24 hrs by CLSI based broth microdilution method. The series is classed as functional.
Series [4] has as its system Staphylococcus aureus. Kind of series: Antibacterial activity against methicillin-resistant Staphylococcus aureus ATCC 33591 assessed as bacterial growth inhibition incubated for 24 hrs by CLSI based broth microdilution method. The series is classed as functional.
In the next series the test system is Escherichia coli. Kind of series: Antibacterial activity against Escherichia coli ATCC 25922 assessed as bacterial growth inhibition incubated for 24 hrs by CLSI based broth microdilution method. The series is classed as functional.
Series [5] concerns Acinetobacter baumannii. Kind of series: Antibacterial activity against Acinetobacter baumannii ATCC 19606 assessed as bacterial growth inhibition incubated for 24 hrs by CLSI based broth microdilution method. The series is classed as functional.
The subject of series [6] is Staphylococcus aureus. Nature of the series: Antibacterial activity against methicillin-resistant Staphylococcus aureus 171 clinical isolate assessed as bacterial growth inhibition incubated for 24 hrs by CLSI based broth microdilution method. The series is classed as functional.
Series [7] has as its system Staphylococcus aureus. Kind of series: Antibacterial activity against methicillin-resistant Staphylococcus aureus 575 clinical isolate assessed as bacterial growth inhibition incubated for 24 hrs by CLSI based broth microdilution method. The series is classed as functional.
A further series deals with Enterococcus. Nature of the series: Antibacterial activity against vancomycin-resistant Enterococcus 80 clinical isolate assessed as bacterial growth inhibition incubated for 24 hrs by CLSI based broth microdilution method. The series is classed as functional.
A further series relates to Pseudomonas aeruginosa. Nature of the series: Antibacterial activity against multidrug-resistant Pseudomonas aeruginosa 126 clinical isolate assessed as bacterial growth inhibition incubated for 24 hrs by CLSI based broth microdilution method. The series is classed as functional.
The next series deals with Klebsiella pneumoniae. Nature of the series: Antibacterial activity against multidrug-resistant Klebsiella pneumoniae 893 clinical isolate assessed as bacterial growth inhibition incubated for 24 hrs by CLSI based broth microdilution method. The series is classed as functional.
Series [8] has as its system Acinetobacter baumannii. Kind of series: Antibacterial activity against carbapenem-resistant Acinetobacter baumannii 882 clinical isolate assessed as bacterial growth inhibition incubated for 24 hrs by CLSI based broth microdilution method. The series is classed as functional.
A short description of series [9]: Cytotoxicity against human HepG2 cells incubated for 24 hrs by CCK8 assay. The series is classed as toxicity, cell-based. In general terms: Tetrazolium dyes change colour on reduction, which living cells bring about.
A short description of series [10]: Cytotoxicity against HEK293 cells incubated for 24 hrs by CCK8 assay. The series is classed as toxicity, cell-based. Particulars: human.
Series [11] is described as follows: Cytotoxicity against human A549 cells incubated for 24 hrs by CCK8 assay. The series is classed as toxicity, cell-based.

SMILES strings stand for the structures. ≈ marks a conversion by molar mass, not a printed value.

On to `C=C[C@]1(C)C[C@@H](OC(=O)COC(=O)/C=C/c2cccnc2)[C@]2(C)[C@H](C)CC[C@]3(CCC(=O)[C@H]32)[C@@H](C)[C@@H]1O`, for which the MIC (commonly the lowest concentration found to suppress growth) in series [1] turned out to be 2 µg/mL (≈ 3.92 µM); in the series with Staphylococcus aureus [2] it was 2 µg/mL (≈ 3.92 µM); in the series on Staphylococcus aureus [3], 8 µg/mL (≈ 15.7 µM); in the series on Staphylococcus aureus [4] it was 16 µg/mL (≈ 31.4 µM); with Escherichia coli, 16 µg/mL (≈ 31.4 µM); in the series with Acinetobacter baumannii [5], 32 µg/mL (≈ 62.8 µM). The minimal inhibitory concentration (MIC) was 32 µg/mL (≈ 62.8 µM) in the series with Staphylococcus aureus [6]; 64 µg/mL (≈ 126 µM) in the series with Staphylococcus aureus [7]; 32 µg/mL (≈ 62.8 µM) with Enterococcus; 16 µg/mL (≈ 31.4 µM) in the series on Pseudomonas aeruginosa; 64 µg/mL (≈ 126 µM) with Klebsiella pneumoniae; greater than 128 µg/mL in the series on Acinetobacter baumannii [8]. Besides, the half-maximal cytotoxic concentration (CC50) – broadly, the concentration giving 50% cytotoxicity – at 24 h stood at 80.6 µM in series [9], 28.6 µM in [10] and 63.4 µM in series [11].
For `C=C[C@]1(C)C[C@@H](OC(=O)COC(=O)/C=C/c2ccccc2C(F)(F)F)[C@]2(C)[C@H](C)CC[C@]3(CCC(=O)[C@H]32)[C@@H](C)[C@@H]1O`, the minimal inhibitory concentration (MIC) in [1] was 64 µg/mL (≈ 111 µM); in the series with Staphylococcus aureus [2] it was 32 µg/mL (≈ 55.5 µM); in the series on Staphylococcus aureus [3], 64 µg/mL (≈ 111 µM); in the series on Staphylococcus aureus [4] it was 128 µg/mL (≈ 222 µM); with Escherichia coli it was greater than 128 µg/mL; in the series on Acinetobacter baumannii [5], greater than 128 µg/mL.
For the molecule `C=C[C@]1(C)C[C@@H](OC(=O)COC(=O)/C=C/c2cccc(F)c2)[C@]2(C)[C@H](C)CC[C@]3(CCC(=O)[C@H]32)[C@@H](C)[C@@H]1O`, the minimum inhibitory concentration (MIC) in series [1] was 32 µg/mL (≈ 60.8 µM); in the series on Staphylococcus aureus [2], 16 µg/mL (≈ 30.4 µM); in the series with Staphylococcus aureus [3] it was 32 µg/mL (≈ 60.8 µM); in the series on Staphylococcus aureus [4], 64 µg/mL (≈ 122 µM); in the series on Escherichia coli, greater than 128 µg/mL; in the series with Acinetobacter baumannii [5], greater than 128 µg/mL.
As for `C=C[C@]1(C)C[C@@H](OC(=O)COC(=O)/C=C/c2cccc(C(F)(F)F)c2)[C@]2(C)[C@H](C)CC[C@]3(CCC(=O)[C@H]32)[C@@H](C)[C@@H]1O`, the MIC in series [1] stood at 64 µg/mL (≈ 111 µM); in the series with Staphylococcus aureus [2], 32 µg/mL (≈ 55.5 µM); in the series on Staphylococcus aureus [3], 64 µg/mL (≈ 111 µM); in the series on Staphylococcus aureus [4] it was 256 µg/mL (≈ 444 µM); in the series with Escherichia coli, 64 µg/mL (≈ 111 µM); in the series with Acinetobacter baumannii [5], 128 µg/mL (≈ 222 µM).
With `C=C[C@]1(C)C[C@@H](OC(=O)COC(=O)/C=C/c2ccc(OCc3ccccc3)cc2)[C@]2(C)[C@H](C)CC[C@]3(CCC(=O)[C@H]32)[C@@H](C)[C@@H]1O`, the minimal inhibitory concentration (MIC) was 32 µg/mL (≈ 52.1 µM) in series [1]; 16 µg/mL (≈ 26 µM) with Staphylococcus aureus [2]; 32 µg/mL (≈ 52.1 µM) with Staphylococcus aureus [3]; 128 µg/mL (≈ 208 µM) with Staphylococcus aureus [4]; greater than 128 µg/mL with Escherichia coli; 64 µg/mL (≈ 104 µM) with Acinetobacter baumannii [5].
